Where two headings read alike, the source gives them in different places.
How the values were obtained:
[1] = tested on: THP-1 cells; assay: hTHP-1 assay: gramicidin-stimulated IL-1β detection in PMA-treated THP-1 cells; type: cell-based, human
Description: The following protocol is suitable for testing the activity of the compounds disclosed herein.
1. Experimental procedure • 1.1 Cell Culture • 1) Culture THP-1 cells in the complete RPMI-1640 medium with 10% FBS at 37° C., 5% CO2. • 2) Passage the cells every 3 days by inoculating 3×10^5 cells per ml. • 1.2 Compound Preparation • Prepare the 3-fold serial dilution of the compounds with DMSO in a 384-well LDV Microplate using TECAN EVO system to generate the compound source plate with 10 concentrations. […] HC: 100 μM CRID3 (MCC950)+5 μM gramicidin LC: 5 μM Gramicidin. • 1.5 IL-1β Detection • 1) Homogenize the 5× diluent #5 with a vortex and add 1 volume of stock solution in 4 volumes of distilled water. • 2) Thaw 20× stock solution of anti-IL1β-Cryptate-antibody and anti-IL1β XL-antibody. Dilute these two antibodies to 1× with detection buffer #3. • 3) Pre-mix the two ready-to-use antibody solutions just prior to use. • 4) Dispense 4 ul of pre-mixed Anti-IL1β antibodies working solution into all wells. • 5) Seal the plate and incubate overnight at 4° C. • 6) Read the cell plate using EnVison and plot Readout vs. the test compound concentration to calculate the IC50.
2. Data Analysis: • 1. IC50 of compounds can be calculated using the following formulas • Formula for IC50
% inhibition=100−100×[HCave-Readout/(HCave−LCave)] • 2. Fit the normalized data in a dose-response manner using XLfit, and calculate the compound concentration.

[2] = tested on: THP-1 cells; assay: as above; type: cell-based, human; settings: Table B2, 10% FBS
[3] = Homo sapiens, THP-1, Table B1, 2% fetal bovine serum, class symbol, read-out: hTHP-1 IC50
[4] = Table B1, 2% fetal bovine serum, numeric value, read-out: hTHP-1 IC50
[5] = Table B1, 2% fetal bovine serum, class symbol, read-out: hTHP-1 IC50
[6] = Homo sapiens, THP-1, Table B2, 10% FBS, class symbol, read-out: hTHP-1 IC50 in 10% FBS
[7] = Homo sapiens, THP-1, Table B2, 10% FBS, numeric value, read-out: hTHP-1 IC50 in 10% FBS
[8] = Homo sapiens, THP-1, Table B1, 2% fetal bovine serum, numeric value, read-out: hTHP-1 IC50

| IC50 [1, 4] | IC50 [1, 5] | SMILES | further results |
| --- | --- | --- | --- |
| 38.9 nM | – | CC(C)(O)c1ncc(S(=O)(=NC(=O)Nc2c3c(cc4c2CC4)CC3)NC#N)s1 (single isomer, unassigned) [Example 23, (S) or (R)-N-cyano-2-(2-hydroxypropan-2-yl)-N′-(tricyclo[6.2.0.03,6]deca-1,3(6),7-trien-2-ylcarbamoyl)thiazole-5-sulfonimidamide] | IC50 [1, 3]: 8 to 40 nM |
| 9.7 nM | 8 to 40 nM | CC(C)(O)c1ncc(S(=O)(=NC(=O)Nc2c3c(cc4c2CC4)CC3)NC#N)s1 (single isomer, unassigned) [Example 24, (R) or (S)-N-cyano-2-(2-hydroxypropan-2-yl)-N′-(tricyclo[6.2.0.03,6]deca-1,3(6),7-trien-2-ylcarbamoyl)thiazole-5-sulfonimidamide] | – |
| 27.5 nM | – | CC(C)(O)c1ncc(S(=O)(=NC(=O)Nc2c3c(cc4c2CC4)CCC3)NC#N)s1 (single isomer, unassigned) [Example 25, (S) or (R)-N-cyano-2-(2-hydroxypropan-2-yl)-N′-((2,4,5,6-tetrahydro-1H-cyclobuta[f]inden-3-yl)carbamoyl)thiazole-5-sulfonimidamide] | IC50 [1, 3]: 8 to 40 nM |
| 13.5 nM | 8 to 40 nM | CC(C)(O)c1ncc(S(=O)(=NC(=O)Nc2c3c(cc4c2CC4)CCC3)NC#N)s1 (single isomer, unassigned) [Example 26, (R) or (S)-N-cyano-2-(2-hydroxypropan-2-yl)-N′-((2,4,5,6-tetrahydro-1H-cyclobuta[f]inden-3-yl)carbamoyl)thiazole-5-sulfonimidamide] | – |
| 92.8 nM | 40 to 200 nM | CC(C)(O)c1ncc(S(=O)(=NC(=O)Nc2c3c(cc4c2CCC4)CCC3)NC#N)s1 (single isomer, unassigned) [Example 27, (S) or (R)-N-cyano-N′-((1,2,3,5,6,7-hexahydro-s-indacen-4-yl)carbamoyl)-2-(2-hydroxypropan-2-yl)thiazole-5-sulfonimidamide] | – |
| 30.8 nM | 8 to 40 nM | CC(C)(O)c1ncc(S(=O)(=NC(=O)Nc2c3c(cc4c2CCC4)CCC3)NC#N)s1 (single isomer, unassigned) [Example 28, (R) or (S)-N-cyano-N′-((1,2,3,5,6,7-hexahydro-s-indacen-4-yl)carbamoyl)-2-(2-hydroxypropan-2-yl)thiazole-5-sulfonimidamide] | – |
| 58.2 nM | 40 to 200 nM | CC(C)(O)c1coc(S(=O)(=NC(=O)Nc2c3c(cc4c2CCC4)CCC3)NC#N)c1 (single isomer, unassigned) [Example 29, (R) or (S)-N-cyano-N′-(1,2,3,5,6,7-hexahydro-s-indacen-4-ylcarbamoyl)-4-(2-hydroxypropan-2-yl)furan-2-sulfonimidamide] | – |
| 16.7 nM | 8 to 40 nM | CC(C)(O)c1coc(S(=O)(=NC(=O)Nc2c3c(cc4c2CCC4)CCC3)NC#N)c1 (single isomer, unassigned) [Example 30, (S) or (R)-N-cyano-N′-((1,2,3,5,6,7-hexahydro-s-indacen-4-yl)carbamoyl)-4-(2-hydroxypropan-2-yl)furan-2-sulfonimidamide] | – |
| 33.8 nM | 8 to 40 nM | CC(C)(O)c1cccc(S(=O)(=NC(=O)Nc2c3c(cc4c2CCC4)CCC3)NC#N)c1 (single isomer, unassigned) [Example 31, (S) or (R)-N-cyano-N′-((1,2,3,5,6,7-hexahydro-s-indacen-4-yl)carbamoyl)-3-(2-hydroxypropan-2-yl)benzenesulfonimidamide] | – |
| 79.5 nM | 40 to 200 nM | CC(C)(O)c1cccc(S(=O)(=NC(=O)Nc2c3c(cc4c2CCC4)CCC3)NC#N)c1 (single isomer, unassigned) [Example 32, (R) or (S)-N-cyano-N′-((1,2,3,5,6,7-hexahydro-s-indacen-4-yl)carbamoyl)-3-(2-hydroxypropan-2-yl)benzenesulfonimidamide] | – |
| 1530 nM | 1000 to 5000 nM | N#CNS(=O)(=NC(=O)Nc1c2c(cc3c1CCC3)CCC2)c1ccccc1 (single isomer, unassigned) [Example 33, (S) or (R)-N-cyano-N′-((1,2,3,5,6,7-hexahydro-s-indacen-4-yl)carbamoyl)benzenesulfonimidamide] | – |
| 355 nM | 200 to 1000 nM | N#CNS(=O)(=NC(=O)Nc1c2c(cc3c1CCC3)CCC2)c1ccccc1 (single isomer, unassigned) [Example 34, (R) or (S)-N-cyano-N′-((1,2,3,5,6,7-hexahydro-s-indacen-4-yl)carbamoyl)benzenesulfonimidamide] | – |
| – | – | NS(=O)(=NC(=O)Nc1c2c(nc(C3CC3)c1C1CC1)CCC2)c1ccn(C2CC2)n1 (single isomer, unassigned) [Example 878, (R) or (S)-1-cyclopropyl-N′-((2,3-dicyclopropyl-6,7-dihydro-5H-cyclopenta[b]pyridin-4-yl)carbamoyl)-1H-pyrazole-3-sulfonimidamide] | IC50 ([2]; class symbol): 40 to 200 nM; IC50 ([2]; numeric value): 88 nM |
| – | – | NS(=O)(=NC(=O)Nc1c2c(nc(C3CC3)c1C1CC1)CCC2)c1ccn(C2CC2)n1 (single isomer, unassigned) [Example 879, (S) or (R)-1-cyclopropyl-N′-((2,3-dicyclopropyl-6,7-dihydro-5H-cyclopenta[b]pyridin-4-yl)carbamoyl)-1H-pyrazole-3-sulfonimidamide] | IC50 ([2]; class symbol): 1000 to 5000 nM; IC50 ([2]; numeric value): 4430 nM |
| – | – | NS(=O)(=NC(=O)Nc1c2c(nc(C(F)(F)F)c1C1CC1)CCC2)c1nn(C2CC2)cc1F (single isomer, unassigned) [Example 880, (R) or (S)-1-cyclopropyl-N′-((3-cyclopropyl-2-(trifluoromethyl)-6,7-dihydro-5H-cyclopenta [b]pyridin-4-yl)carbamoyl)-4-fluoro-1H-pyrazole-3-sulfonimidamide] | IC50 ([2]; class symbol): 40 to 200 nM; IC50 ([2]; numeric value): 53.9 nM |
| – | – | NS(=O)(=NC(=O)Nc1c2c(nc(C(F)(F)F)c1C1CC1)CCC2)c1nn(C2CC2)cc1F (single isomer, unassigned) [Example 881, (S) or (R)-1-cyclopropyl-N′-((3-cyclopropyl-2-(trifluoromethyl)-6,7-dihydro-5H-cyclopenta [b]pyridin-4-yl)carbamoyl)-4-fluoro-1H-pyrazole-3-sulfonimidamide] | IC50 ([2]; class symbol): 1000 to 5000 nM; IC50 ([2]; numeric value): 1410 nM |
| – | – | NS(=O)(=NC(=O)Nc1c2c(nc(C3CC3)c1C1CC1)CCC2)c1nn(C2CC2)cc1F (single isomer, unassigned) [Example 882, (R) or (S)-1-cyclopropyl-N′-((2,3-dicyclopropyl-6,7-dihydro-5H-cyclopenta[b]pyridin-4-yl)carbamoyl)-4-fluoro-1H-pyrazole-3-sulfonimidamide] | IC50 ([2]; class symbol): 40 to 200 nM; IC50 ([2]; numeric value): 102 nM |
| – | – | NS(=O)(=NC(=O)Nc1c2c(nc(C(F)(F)F)c1C1CC1)CCC2)c1ccn(C2CC2)n1 (single isomer, unassigned) [Example 898, (R) or (S)-1-cyclopropyl-N′-((3-cyclopropyl-2-(trifluoromethyl)-6,7-dihydro-5H-cyclopenta [b]pyridin-4-yl)carbamoyl)-1H-pyrazole-3-sulfonimidamide] | IC50 [1, 6]: 40 to 200 nM; IC50 [1, 7]: 114 nM |
| – | – | CC(C)(O)c1ncc(S(=O)(=NC(=O)Nc2c3c(cc4c2CCC4)CCC3)NC#N)s1 (centres unmarked) [Example 3, N-cyano-N′-((1,2,3,5,6,7-hexahydro-s-indacen-4-yl)carbamoyl)-2-(2-hydroxypropan-2-yl)thiazole-5-sulfonimidamide] | IC50 [1, 3]: 40 to 200 nM; IC50 [1, 8]: 34 nM |
| – | – | CC(C)(O)c1nc(CO)c([S@](=O)(=NC(=O)Nc2c3c(nc4c2CCC4(C)C)CCC3)NC#N)s1 [Example 12, (S) or-N-cyano-N′-((3,3-dimethyl-1,2,3,5,6,7-hexahydrodicyclopenta[b,e]pyridin-8-yl)carbamoyl)-4-(hydroxymethyl)-2-(2-hydroxypropan-2-yl)thiazole-5-sulfonimidamide] | IC50 [1, 3]: 40 to 200 nM; IC50 [1, 8]: 419 nM |
| – | – | NS(=O)(=NC(=O)Nc1c2c(nc(C(F)(F)F)c1C1CC1)CCC2)c1ccn(C2CC2)n1 (centres unmarked) [Example 873, 1-Cyclopropyl-N′-((3-cyclopropyl-2-(trifluoromethyl)-6,7-dihydro-5H-cyclopenta[b]pyridin-4-yl)carbamoyl)-1H-pyrazole-3-sulfonimidamide] | IC50 [1, 6]: 40 to 200 nM; IC50 [1, 7]: 128 nM |
| – | – | NS(=O)(=NC(=O)Nc1c2c(nc(C3CC3)c1C1CC1)CCC2)c1ccn(C2CC2)n1 (centres unmarked) [Example 877, 1-Cyclopropyl-N′-((2,3-dicyclopropyl-6,7-dihydro-5H-cyclopenta[b]pyridin-4-yl)carbamoyl)-1H-pyrazole-3-sulfonimidamide] | IC50 [1, 6]: 40 to 200 nM; IC50 [1, 7]: 154 nM |

Reference: patent publication US20230063462A1, “SULFONIMIDAMIDE COMPOUNDS AND COMPOSITIONS FOR TREATING CONDITIONS ASSOCIATED WITH NLRP ACTIVITY” (NOVARTIS AG, priority 2019, published 2023)
